Drawing on patent publication US11802128B2, “Azetidine and pyrrolidine PARP1 inhibitors and uses thereof” (Xinthera, Inc., priority 2021, dated 2023), this text covers EC50 and IC50 for 24 compounds.

One may read the EC50 as the concentration at which the effect is half-maximal. Higher therefore signals a less potent agent. In general, IC50 refers to the midpoint of a concentration-inhibition curve.

The structures appear in SMILES notation.

Experiment [1] deals with DLD-1 BRCA2(−/−) cells. Put plainly: Cell growth inhibition assay (CellTiter-Glo cell viability, 7 days). The format is cell-based. As to conditions: Homo sapiens, 168 h. From the text: (§1) The objective of this study is to evaluate the effect of invention compounds on cell proliferation through the cell viability assay in DLD-1 BRCA2(−/−) and parental isogenic pair and MDA-MB-436 (mutated BRCA1) cell lines. The CellTiter-Glo (CTG) based cell viability assay is designed to determine the number of viable cells in the culture because of compound effect, by quantifying ATP, which indicates the presence of metabolically active cells.
(§2) DLD-1 BRCA2(−/−) and parental isogenic pair were cultured in RPMI 1640 supplemented with 10% fetal bovine serum (FBS), and MDA-MB-436 cells were cultured in DMEM supplemented with 10% FBS. Both are culture at 37° C. with 5% CO2. Invention compounds were distributed to the 384 well plate (Corning, 3764) using Echo acoustic liquid handler to form a 1:3 serially diluted final concentration with top dose of 10 or 30 μM. The cells were seeded into the plate in the density of 50 cells/well (DLD-1 parental), 200 cells/well (DLD-1 BRCA2−/−), or 500 cells/well (MDA-MB-436). After a short spun, the cells were cultured in a well moisturized incubator at 37° C. with 5% CO2 for 7 days without disturbance. The cell viability was measured by CellTiter Glo 2.0 assay kit (Promega, G9243), and growth inhibition rate was calculated and plotted against final compound concentration, and the data were fitted in Xfit to generate IC50.

The test system of experiment [2] is MDA-MB-436 (mutated BRCA1) cells. The experiment is described as above. The format is cell-based. The following applies: Homo sapiens, 168 h, MDA-MB-436, 7 days.
Source text: as §1, §2

Experiment [3] addresses PARP2 (Homo sapiens (Human), UniProt Q9UGN5). Put plainly: Biochemical fluorescent polarization (FP) assay, displacement of PARPi-FL. The format is binding. As to conditions: 20 nM protein, 3 nM PARPi-FL, 4 h at room temperature; read-out: IC50 FP PARP2. The procedure: (§3) The assay was performed utilizing the following method:
(§4) 100% DMSO was used for the high (with protein) and low (without protein) control samples. 20 nL of compound or DMSO alone was added to individual assay plate wells.
(§5) PARP1 and PARP2 protein were expressed, purified, and diluted in assay buffer containing 50 mM Tris pH 8.0, 0.001% Triton X-100, 10 mM MgCl2, 150 mM NaCl to a final concentration of 20 nM. The PARPi-FL was then added at a final concentration of 3 nM.
(§6) The assay plate is centrifuged at 1000 rpm for 1 min and incubated for 4 h at room temperature.
(§7) The fluorescent polarization is read using an Envision plate reader using the following settings: […]

The target in experiment [4] is PARP1 (Homo sapiens (Human), UniProt P09874). The description is as above. The format is binding. The following applies: 20 nM protein, 3 nM PARPi-FL, 4 h at room temperature. As to the method: as §3, §4, §5, §6, §7
Sequence of PARP1 (P09874 whole entry): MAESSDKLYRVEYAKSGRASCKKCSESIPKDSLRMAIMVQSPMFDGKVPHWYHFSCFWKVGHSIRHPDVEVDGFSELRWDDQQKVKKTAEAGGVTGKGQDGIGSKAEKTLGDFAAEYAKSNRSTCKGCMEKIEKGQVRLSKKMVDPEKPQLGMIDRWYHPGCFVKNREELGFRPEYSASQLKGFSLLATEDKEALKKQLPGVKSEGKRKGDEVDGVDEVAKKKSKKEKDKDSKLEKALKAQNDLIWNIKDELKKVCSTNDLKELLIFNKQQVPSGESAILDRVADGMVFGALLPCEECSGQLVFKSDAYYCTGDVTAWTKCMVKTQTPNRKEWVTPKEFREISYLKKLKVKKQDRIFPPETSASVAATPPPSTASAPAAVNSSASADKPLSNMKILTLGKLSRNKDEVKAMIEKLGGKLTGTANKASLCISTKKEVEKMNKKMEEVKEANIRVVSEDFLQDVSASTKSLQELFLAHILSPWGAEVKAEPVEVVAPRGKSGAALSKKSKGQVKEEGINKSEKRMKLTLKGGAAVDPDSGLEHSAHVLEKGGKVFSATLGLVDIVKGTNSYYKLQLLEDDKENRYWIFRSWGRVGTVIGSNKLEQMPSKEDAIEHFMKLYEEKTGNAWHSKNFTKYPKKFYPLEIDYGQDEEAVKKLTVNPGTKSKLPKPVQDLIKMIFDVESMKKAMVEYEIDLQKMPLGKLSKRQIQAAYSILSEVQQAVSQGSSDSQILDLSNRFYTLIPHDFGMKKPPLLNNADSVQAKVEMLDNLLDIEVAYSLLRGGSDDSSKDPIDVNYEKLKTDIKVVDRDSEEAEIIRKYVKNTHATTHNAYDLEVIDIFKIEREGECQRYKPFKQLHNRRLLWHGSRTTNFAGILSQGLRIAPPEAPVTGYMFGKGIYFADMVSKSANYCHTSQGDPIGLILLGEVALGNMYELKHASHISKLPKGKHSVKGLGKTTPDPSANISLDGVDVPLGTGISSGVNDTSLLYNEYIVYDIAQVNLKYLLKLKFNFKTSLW

Sequence of PARP2 (Q9UGN5 whole entry): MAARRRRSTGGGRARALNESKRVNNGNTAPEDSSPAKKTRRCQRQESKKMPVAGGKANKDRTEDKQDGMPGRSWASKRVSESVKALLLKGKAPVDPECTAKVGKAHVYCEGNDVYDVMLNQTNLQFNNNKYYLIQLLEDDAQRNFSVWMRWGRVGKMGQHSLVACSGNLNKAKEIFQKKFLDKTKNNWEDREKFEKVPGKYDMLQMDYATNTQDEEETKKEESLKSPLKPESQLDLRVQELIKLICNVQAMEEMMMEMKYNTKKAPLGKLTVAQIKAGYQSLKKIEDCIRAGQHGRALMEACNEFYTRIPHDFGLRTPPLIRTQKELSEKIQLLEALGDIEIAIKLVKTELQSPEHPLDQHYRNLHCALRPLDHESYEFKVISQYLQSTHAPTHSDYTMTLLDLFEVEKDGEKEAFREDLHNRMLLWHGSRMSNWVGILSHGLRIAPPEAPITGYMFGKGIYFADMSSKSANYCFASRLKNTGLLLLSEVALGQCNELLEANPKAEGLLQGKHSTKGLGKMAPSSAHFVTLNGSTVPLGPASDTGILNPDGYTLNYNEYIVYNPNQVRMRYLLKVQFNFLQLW

`CCc1cc2ncc([C@@H](C)N3C[C@H](Oc4ccc(C(=O)NC)nc4)[C@H]3C)cc2[nH]c1=O` (single isomer, unassigned) [Example 54, 5-{[(2R,3S)-1-[(1R*)-1-(7-ethyl-6-oxo-5H-1,5-naphthyridin-3-yl)ethyl]-2-methylazetidin-3-yl]oxy}-N-methylpyridine-2-carboxamide]: the EC50 in experiment [1] came to 1.2 nM; in experiment [2], 0.62 nM. The IC50 in experiment [3] was 900 nM; in experiment [4], 4.5 nM.
Regarding `CCc1cc2ncc([C@H](C)N3C[C@H](Oc4ccc(C(=O)NC)nc4)[C@H]3C)cc2[nH]c1=O` (single isomer, unassigned) [Example 55, 5-{[(2R,3S)-1-[(1R*)-1-(7-ethyl-6-oxo-5H-1,5-naphthyridin-3-yl)ethyl]-2-methylazetidin-3-yl]oxy}-N-methylpyridine-2-carboxamide], the values for the EC50 in experiment [1] and in experiment [2] were 38 nM and 12 nM, respectively. For the same compound, the IC50 is above 100000 nM in experiment [3] and 6.4 nM in experiment [4].
For `Cc1cc2ncc([C@@H](C)N3C[C@H](Oc4ccc(C#N)nc4)[C@H]3C)cc2[nH]c1=O` (single isomer, unassigned) [Example 60] the same measures were above 1000 nM, above 1000 nM, above 100000 nM and above 100 nM.
For `Cc1cc2ncc([C@H](C)N3C[C@H](Oc4ccc(C#N)nc4)[C@H]3C)cc2[nH]c1=O` (single isomer, unassigned) [Example 61] the same measures were 10 nM, 8.8 nM, 23000 nM and 18 nM.
The like results for `Cc1cc2ncc(CN3C[C@H](Oc4ccc(C(=O)N[C@H]5CC5(F)F)nc4)[C@H]3C)cc2[nH]c1=O` (single isomer, unassigned) [Example 89] were, in that order, 1.8 nM, 1.1 nM, 9600 nM and 7.2 nM.
On to `Cc1cc2ncc(CN3C[C@H](Oc4ccc(C(=O)N[C@@H]5CC5(F)F)nc4)[C@H]3C)cc2[nH]c1=O` (single isomer, unassigned) [Example 90], for which the EC50 in experiment [1] was 2.8 nM; in experiment [2], 1.8 nM. For the same compound, the values for the IC50 in experiment [3] and in experiment [4] were 3100 nM and 8.5 nM, respectively.
As to `Cc1cc2ncc(CN3CCC(Oc4ccc(C(=O)NCC(F)F)nc4)C3)cc2[nH]c1=O` (stereo in doubt) [Example 10, N-(2,2-difluoroethyl)-5-{[(3R)-1-[(7-methyl-6-oxo-5H-1,5-naphthyridin-3-yl)methyl]pyrrolidin-3-yl]oxy}pyridine-2-carboxamide], the EC50 in experiment [1] turned out to be 8.8 nM; in experiment [2], 6.8 nM. For the same compound, the IC50 is above 100000 nM in experiment [3] and 6.8 nM in experiment [4].
As to `CNC(=O)c1ccc(O[C@@H]2CCN(Cc3cnc4cc(C5CC5)c(=O)[nH]c4c3)C2)cn1` [Example 3, 5-{[(3R)-1-[(7-cyclopropyl-6-oxo-5H-1,5-naphthyridin-3-yl)methyl]pyrrolidin-3-yl]oxy}-N-methylpyridine-2-carboxamide], the EC50 in experiment [1] amounted to 13 nM; in experiment [2] it was 4.5 nM. For the same compound, the IC50 in experiment [3] was above 100000 nM; in experiment [4], 6.4 nM.
`C[C@@H]1[C@@H](Oc2ccc(C(=O)NC3CC3)nc2F)CN1Cc1cnc2cc(Cl)c(=O)[nH]c2c1` [Example 105]: the values for the EC50 in experiment [1] and in experiment [2] were 2.2 nM and 0.93 nM, respectively.
For `CNC(=O)c1ccc(O[C@H]2CN(Cc3ccc4cc(Cl)c(=O)[nH]c4c3F)[C@@H]2C)cn1` [Example 106, 5-{[(2R,3S)-1-[(3-chloro-8-fluoro-2-oxo-1H-quinolin-7-yl)methyl]-2-methylazetidin-3-yl]oxy}-N-methylpyridine-2-carboxamide] the same measures were 8.3 nM and 5 nM.
The like results for `CCc1nc2c(F)cc(CN3C[C@H](Oc4ccc(C(=O)NC)nc4)[C@H]3C)c(F)c2[nH]c1=O` [Example 107] were, in that order, 30 nM and 17 nM.
As for `CCc1cc2c(F)cc(CN3C[C@H](Oc4ccc(C(=O)NC)nc4)[C@H]3C)c(F)c2[nH]c1=O` [Example 108], the EC50 in experiment [1] and in experiment [2] was 12 nM in each case.
On to `[2H]C([2H])([2H])NC(=O)c1ccc(O[C@H]2CN(Cc3ccc4nc(CC)c(=O)[nH]c4c3F)[C@@H]2C)c(F)n1` [Example 110, 5-{[(2R,3S)-1-[(2-ethyl-5-fluoro-3-oxo-4H-quinoxalin-6-yl)methyl]-2-methylazetidin-3-yl]oxy}-6-fluoro-N-methyl-d3 pyridine-2-carboxamide], for which the EC50 in experiment [1] was 14 nM; in experiment [2], 9.4 nM.
The like results for `[2H]C([2H])(c1ccc2nc(CC)c(=O)[nH]c2c1F)N1C[C@H](Oc2ccc(C(=O)NC)nc2F)[C@H]1C` [Example 111] were, in that order, 15 nM and 13 nM.
For `[2H]C([2H])(c1ccc2nc(CC)c(=O)[nH]c2c1F)N1C[C@H](Oc2ccc(C(=O)NC3CC3)nc2F)[C@H]1C` [Example 112] the same measures were 4.7 nM and 2.6 nM.
For `CNC(=O)c1ccc(O[C@H]2CN(Cc3ccc4c([nH]c(=O)c5ccnn54)c3F)[C@@H]2C)cn1` [Example 113, 5-{[(2R,3S)-1-({6-fluoro-4-oxo-5H-pyrazolo[1,5-a]quinoxalin-7-yl}methyl)-2-methylazetidin-3-yl]oxy}-N-methylpyridine-2-carboxamide] the same measures were 16 nM and 8.7 nM.
For `Cc1cc2c(=O)[nH]c3c(F)c(CN4C[C@H](Oc5ccc(C(=O)NC6CC6)nc5)[C@H]4C)ccc3n2n1` [Example 114], the EC50 turned out to be 5.9 nM in experiment [1] and 3.6 nM in experiment [2].
For `CNC(=O)c1ccc(O[C@H]2CN(Cc3ccc4c5c(c(=O)[nH]c4c3F)CCO5)[C@@H]2C)cn1` [Example 115, 5-{[(2R,3S)-1-({6-fluoro-4-oxo-2H,3H,5H-furo[3,2-c]quinolin-7-yl}methyl)-2-methylazetidin-3-yl]oxy}-N-methylpyridine-2-carboxamide] the same measures were 170 nM and 170 nM.
The like results for `C[C@@H]1[C@@H](Oc2ccc(C(=O)NC3CC3)nc2)CN1Cc1ccc2c3c(c(=O)[nH]c2c1F)CCO3` [Example 116] were, in that order, 13 nM and 3.3 nM.
`CCc1nc2ccc(CN3CC(Oc4ccc(C(=O)NC5CC5)nc4)C3)c(F)c2[nH]c1=O` [Example 117]: the EC50 in experiment [1] and in experiment [2] was 13 nM in each case.
Consider `CCc1cc2ccc(CN3CC(Oc4ccc(C(=O)NC5CC5)nc4)C3)c(F)c2[nH]c1=O` [Example 118], for which the EC50 in experiment [1] is 24 nM; in experiment [2], 22 nM.
Consider `C[C@@H]1[C@@H](Oc2ccc(C(=O)NCC(F)F)nc2)CN1Cc1ccc2c([nH]c(=O)c3ccnn32)c1F` [Example 119], for which the EC50 in experiment [1] came to 6.8 nM; in experiment [2], 4.4 nM.
As for `C[C@@H]1[C@@H](Oc2ccc(C(=O)NCC(F)F)nc2)CN1Cc1ccc2c3c(c(=O)[nH]c2c1F)CCO3` [Example 120], the EC50 in experiment [1] is 21 nM; in experiment [2], 8.7 nM.
With `CNC(=O)c1ccc(O[C@H]2CN(Cc3ccc4c([nH]c(=O)c5c(F)cnn54)c3F)[C@@H]2C)cn1` [Example 121, 5-{[(2R,3S)-1-({3,6-difluoro-4-oxo-5H-pyrazolo[1,5-a]quinoxalin-7-yl}methyl)-2-methylazetidin-3-yl]oxy}-N-methylpyridine-2-carboxamide], the EC50 in experiment [1] stood at 1.2 nM; in experiment [2], 1.8 nM.
